In patent US12077503B2, “Substituted cyclic amides and their use as herbicides” (FMC CORPORATION, priority 2015, dated 2024):

What was measured:
Assay type in all cases: in vivo
[1] = tested on: barnyardgrass (Echinochloa crus-galli); assay: Test G Post-Emergence Protocol; conditions: Echinochloa crus-galli, post-emergence, 312 h, read-out: Barnyardgrass damage rating; for pest or weed control at 15.625 g/ha: 15.625 g ai/ha, evaluated after 13 days (100=total damage to plant; 0=no damage to plant); for pest or weed control at 62.5 g/ha: 62.5 g ai/ha; for pest or weed control at 62.5 g/ha / pest or weed control at 250 g/ha: evaluated after 13 days, 100=total damage to plant, 0=no damage to plant; for pest or weed control at 250 g/ha: 250 g ai/ha
How it was run: (§1)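 Foliar application was made 8 days after sowing, using an aqueous spray of the active in acetone/water (50:50) with 0.5% Tween 20, at doses of 15.625, 62.5 or 250 g/ha. Injury was assessed 13 days later, where 100 meant the plant was fully damaged.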

corn (Zea mays) [2] = assay: Test G Post-Emergence Protocol; conditions: Zea mays, post-emergence, 312 h, read-out: Corn damage rating; for plant injury at 15.625 g/ha: 15.625 g ai/ha, evaluated after 13 days (100=total damage to plant; 0=no damage to plant); for plant injury at 62.5 g/ha: 62.5 g ai/ha; for plant injury at 62.5 g/ha / plant injury at 250 g/ha: evaluated after 13 days, 100=total damage to plant, 0=no damage to plant; for plant injury at 250 g/ha: 250 g ai/ha
How it was run: as §1

[3] = tested on: redroot pigweed (Amaranthus retroflexus); assay: Test G Post-Emergence Protocol; conditions: Amaranthus retroflexus, post-emergence, 312 h, read-out: Pigweed, Redroot damage rating; for pest or weed control at 15.625 g/ha: 15.625 g ai/ha, evaluated after 13 days (100=total damage to plant; 0=no damage to plant); for pest or weed control at 62.5 g/ha: 62.5 g ai/ha; for pest or weed control at 62.5 g/ha / pest or weed control at 250 g/ha: evaluated after 13 days, 100=total damage to plant, 0=no damage to plant; for pest or weed control at 250 g/ha: 250 g ai/ha
How it was run: as §1

[4] = tested on: velvetleaf (Abutilon theophrasti); assay: Test G Post-Emergence Protocol; conditions: Abutilon theophrasti, post-emergence, 312 h, read-out: Velvetleaf damage rating; for pest or weed control at 15.625 g/ha: 15.625 g ai/ha, evaluated after 13 days (100=total damage to plant; 0=no damage to plant); for pest or weed control at 62.5 g/ha: 62.5 g ai/ha; for pest or weed control at 62.5 g/ha / pest or weed control at 250 g/ha: evaluated after 13 days, 100=total damage to plant, 0=no damage to plant; for pest or weed control at 250 g/ha: 250 g ai/ha
How it was run: as §1

[5] = tested on: giant foxtail (Setaria faberi); assay: Test G Post-Emergence Protocol; conditions: Setaria faberi, post-emergence, 312 h, read-out: Foxtail, Giant damage rating; for pest or weed control at 15.625 g/ha: 15.625 g ai/ha, evaluated after 13 days (100=total damage to plant; 0=no damage to plant); for pest or weed control at 62.5 g/ha: 62.5 g ai/ha; for pest or weed control at 62.5 g/ha / pest or weed control at 250 g/ha: evaluated after 13 days, 100=total damage to plant, 0=no damage to plant; for pest or weed control at 250 g/ha: 250 g ai/ha
How it was run: as §1

[6] = tested on: ivy-leaved morning glory (Ipomoea hederacea); assay: Test G Post-Emergence Protocol; conditions: Ipomoea, post-emergence, 312 h, read-out: Morningglory, Ivy-leaved damage rating; for pest or weed control at 15.625 g/ha: 15.625 g ai/ha, evaluated after 13 days (100=total damage to plant; 0=no damage to plant); for pest or weed control at 62.5 g/ha: 62.5 g ai/ha; for pest or weed control at 62.5 g/ha / pest or weed control at 250 g/ha: evaluated after 13 days, 100=total damage to plant, 0=no damage to plant; for pest or weed control at 250 g/ha: 250 g ai/ha
How it was run: as §1

[7] = tested on: barnyardgrass (Echinochloa crus-galli); assay: Test G Pre-Emergence Protocol; conditions: Echinochloa crus-galli, pre-emergence, 312 h, evaluated after 13 days; for pest or weed control at 15.625 g/ha: 15.625 g ai/ha; for pest or weed control at 15.625 g/ha / pest or weed control at 250 g/ha: read-out: Barnyardgrass damage rating (100=total damage to plant; 0=no damage to plant); for pest or weed control at 62.5 g/ha: 62.5 g ai/ha, 100=total damage to plant, 0=no damage to plant, read-out: Barnyardgrass damage rating; for pest or weed control at 250 g/ha: 250 g ai/ha
How it was run: (§2)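 Glasshouse pre-emergence test: soil-sown seeds, sprayed after 1 d at 15.625, 62.5 or 250 g/ha. Conditions 24/16° C day/night, 14 h light, 65% humidity, watering twice daily. Rating 13 d post-spray (100 = total damage).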

corn (Zea mays) [8] = assay: Test G Pre-Emergence Protocol; conditions: Zea mays, pre-emergence, 312 h, evaluated after 13 days; for plant injury at 15.625 g/ha: 15.625 g ai/ha; for plant injury at 15.625 g/ha / plant injury at 250 g/ha: read-out: Corn damage rating (100=total damage to plant; 0=no damage to plant); for plant injury at 62.5 g/ha: 62.5 g ai/ha, 100=total damage to plant, 0=no damage to plant, read-out: Corn damage rating; for plant injury at 250 g/ha: 250 g ai/ha
How it was run: as §2

[9] = tested on: redroot pigweed (Amaranthus retroflexus); assay: Test G Pre-Emergence Protocol; conditions: Amaranthus retroflexus, pre-emergence, 312 h, evaluated after 13 days; for pest or weed control at 15.625 g/ha: 15.625 g ai/ha; for pest or weed control at 15.625 g/ha / pest or weed control at 250 g/ha: read-out: Pigweed, Redroot damage rating (100=total damage to plant; 0=no damage to plant); for pest or weed control at 62.5 g/ha: 62.5 g ai/ha, 100=total damage to plant, 0=no damage to plant, read-out: Pigweed, Redroot damage rating; for pest or weed control at 250 g/ha: 250 g ai/ha
How it was run: as §2

[10] = tested on: velvetleaf (Abutilon theophrasti); assay: Test G Pre-Emergence Protocol; conditions: Abutilon theophrasti, pre-emergence, 312 h, evaluated after 13 days; for pest or weed control at 15.625 g/ha: 15.625 g ai/ha; for pest or weed control at 15.625 g/ha / pest or weed control at 250 g/ha: read-out: Velvetleaf damage rating (100=total damage to plant; 0=no damage to plant); for pest or weed control at 62.5 g/ha: 62.5 g ai/ha, 100=total damage to plant, 0=no damage to plant, read-out: Velvetleaf damage rating; for pest or weed control at 250 g/ha: 250 g ai/ha
How it was run: as §2

[11] = tested on: giant foxtail (Setaria faberi); assay: Test G Pre-Emergence Protocol; conditions: Setaria faberi, pre-emergence, 312 h, evaluated after 13 days; for pest or weed control at 15.625 g/ha: 15.625 g ai/ha; for pest or weed control at 15.625 g/ha / pest or weed control at 250 g/ha: read-out: Foxtail, Giant damage rating (100=total damage to plant; 0=no damage to plant); for pest or weed control at 62.5 g/ha: 62.5 g ai/ha, 100=total damage to plant, 0=no damage to plant, read-out: Foxtail, Giant damage rating; for pest or weed control at 250 g/ha: 250 g ai/ha
How it was run: as §2

[12] = tested on: ivy-leaved morning glory (Ipomoea hederacea); assay: Test G Pre-Emergence Protocol; conditions: Ipomoea, pre-emergence, 312 h, evaluated after 13 days; for pest or weed control at 15.625 g/ha: 15.625 g ai/ha; for pest or weed control at 15.625 g/ha / pest or weed control at 250 g/ha: read-out: Morningglory, Ivy-leaved damage rating (100=total damage to plant; 0=no damage to plant); for pest or weed control at 62.5 g/ha: 62.5 g ai/ha, 100=total damage to plant, 0=no damage to plant, read-out: Morningglory, Ivy-leaved damage rating; for pest or weed control at 250 g/ha: 250 g ai/ha
How it was run: as §2

## CN1C[C@H](c2ccc(Cl)cc2)[C@@H](C(=O)Nc2cccnc2F)C1=O [Compound 1810]
[1]
  pest or weed control at 15.625 g/ha: 0%
  pest or weed control at 62.5 g/ha: 60%
  pest or weed control at 250 g/ha: 80%
Corn (Zea mays) [2]
  plant injury at 15.625 g/ha: 0%
  plant injury at 62.5 g/ha: 0%
  plant injury at 250 g/ha: 50%
[3]
  pest or weed control at 15.625 g/ha: 0%
  pest or weed control at 62.5 g/ha: 10%
  pest or weed control at 250 g/ha: 60%
[4]
  pest or weed control at 15.625 g/ha: 20%
  pest or weed control at 62.5 g/ha: 30%
  pest or weed control at 250 g/ha: 40%
[5]
  pest or weed control at 15.625 g/ha: 20%
  pest or weed control at 62.5 g/ha: 80%
  pest or weed control at 250 g/ha: 80%
[6]
  pest or weed control at 15.625 g/ha: 20%
  pest or weed control at 62.5 g/ha: 60%
  pest or weed control at 250 g/ha: 20%
[7]
  pest or weed control at 15.625 g/ha: 60%
  pest or weed control at 62.5 g/ha: 90%
  pest or weed control at 250 g/ha: 90%
Corn (Zea mays) [8]
  plant injury at 15.625 g/ha: 20%
  plant injury at 62.5 g/ha: 30%
  plant injury at 250 g/ha: 90%
[9]
  pest or weed control at 15.625 g/ha: 0%
  pest or weed control at 62.5 g/ha: 40%
  pest or weed control at 250 g/ha: 80%
[10]
  pest or weed control at 15.625 g/ha: 0%
  pest or weed control at 62.5 g/ha: 40%
  pest or weed control at 250 g/ha: 70%
[11]
  pest or weed control at 15.625 g/ha: 80%
  pest or weed control at 62.5 g/ha: 90%
  pest or weed control at 250 g/ha: 90%
[12]
  pest or weed control at 15.625 g/ha: 0%
  pest or weed control at 62.5 g/ha: 30%
  pest or weed control at 250 g/ha: 70%

## CN1C[C@H](c2ccc(Cl)cc2)[C@@H](C(=O)Nc2cnccc2C(F)(F)F)C1=O [Compound 1812]
[1]
  pest or weed control at 15.625 g/ha: 0%
  pest or weed control at 62.5 g/ha: 0%
  pest or weed control at 250 g/ha: 70%
Corn (Zea mays) [2]
  plant injury at 15.625 g/ha: 0%
  plant injury at 62.5 g/ha: 0%
  plant injury at 250 g/ha: 50%
[3]
  pest or weed control at 15.625 g/ha: 0%
  pest or weed control at 62.5 g/ha: 20%
  pest or weed control at 250 g/ha: 50%
[4]
  pest or weed control at 15.625 g/ha: 0%
  pest or weed control at 62.5 g/ha: 10%
  pest or weed control at 250 g/ha: 60%
[5]
  pest or weed control at 15.625 g/ha: 0%
  pest or weed control at 62.5 g/ha: 80%
  pest or weed control at 250 g/ha: 80%
[6]
  pest or weed control at 15.625 g/ha: 0%
  pest or weed control at 62.5 g/ha: 50%
  pest or weed control at 250 g/ha: 70%
[7]
  pest or weed control at 15.625 g/ha: 0%
  pest or weed control at 62.5 g/ha: 0%
  pest or weed control at 250 g/ha: 70%
Corn (Zea mays) [8]
  plant injury at 15.625 g/ha: 0%
  plant injury at 62.5 g/ha: 0%
  plant injury at 250 g/ha: 40%
[9]
  pest or weed control at 15.625 g/ha: 0%
  pest or weed control at 62.5 g/ha: 20%
  pest or weed control at 250 g/ha: 70%
[10]
  pest or weed control at 15.625 g/ha: 0%
  pest or weed control at 62.5 g/ha: 40%
  pest or weed control at 250 g/ha: 80%
[11]
  pest or weed control at 15.625 g/ha: 90%
  pest or weed control at 62.5 g/ha: 90%
  pest or weed control at 250 g/ha: 90%
[12]
  pest or weed control at 15.625 g/ha: 0%
  pest or weed control at 62.5 g/ha: 0%
  pest or weed control at 250 g/ha: 40%
